Source: US7960435B2, “Anti-cancer agents and androgen inhibition activity compound” (University of Maryland, Baltimore, priority 2006, dated 2011)
Like-named read-outs stand apart in the source and are kept apart here.

Legend:
[1] = tested on: LNCaP cells; test: Cell growth inhibition (MTT colorimetric assay), LNCaP; format: cell-based, human; details: for GI50: LNCaP (mutant AR), MTT, means of three experiments, called IC50, read-out: Cytotoxicity GI50 (nM) LNCaP
Text: (§1) Lead optimization of BTB01434 and further biological studies: BTB01434 (Maybridge) was used as a lead molecule to synthesize new molecules. Although this compound was not as potent as some of the others (cf. Table 4), it was chosen for its ease of modification. New compounds (6-23) were developed using the diaryl sulfonamide compound BTB01434 (FIG. 6) as a scaffold. […] Including new BTB01434 analogs, including diaryl sulfonamide analogs bearing various substituents on the phenyl rings (series A), aryl amide analogs (series B), and amine analogs (series C). These new compounds were evaluated for cell growth inhibition in two human prostate cancer cell lines, (LNCaP and PC-3) by MTT assay. Based on the structures and anti-prostate cancer activities of the new compounds, a structure-activity relationship (SAR) was formulated.
Androgen-dependent LNCaP cells were obtained from American Type Culture Collection (Rockville, Md., USA). Cells were maintained in RPMI 1640 medium supplemented with 10% fetal bovine serum (Atlanta Biologicals, Lawrenceville, Ga., USA) and 1% penicillin/streptomycin. Cells were grown as a monolayer in T75 or T150 tissue culture flasks in a humidified incubator (5% CO2, 95% air) at 37° C.
(§2) LNCaP cells were seeded in 24 well plates (Corning Costar) at a density of 2×10^4 cells per well per 1 mL of medium. Cell were allowed to adhere to the plate for 24 hours and then treated with different concentrations of ARDAs dissolved in DMSO. Cells were treated for five days with renewal of ARDA and media on day 3. On the fifth day, medium was renewed and 100 μL of MTT (3-(4,5-dimethylthiazol-2-yl)-2,5-diphenyl-2H-tetrazolium bromide from Sigma) solution (0.5 mg MTT/mL of medium) was added to the medium such that the ratio of MTT:medium was 1:10. The cells were incubated with MTT for 2 hours. The medium was then aspirated and 500 μL of DMSO was added to solubilize the violet MTT-formazan product. The absorbance at 560 nm was measured by spectrophotometry (Victor 1420 multilabel counted, Wallac). For each concentration of ARDA there were triplicate wells in each independent experiment. IC50 values were calculated by nonlinear regression analysis using GraphPad Prism software.

[2] = tested on: PC-3 cells; test: Cell growth inhibition (MTT assay), PC-3; format: cell-based, human; details: PC-3 (AR null), means of three experiments, called IC50, read-out: Cytotoxicity GI50 (nM) PC-3
Text: as §1
Inhibition of prostate cancer cell proliferation and SAR: The exemplary compounds were then tested for their ability to inhibit cell viability in both the LNCaP (mutant AR) and PC-3 (AR null) cell lines (Table 5).
as §2

[3] = tested on: androgen receptor (AR); test: AR protein expression down-regulation in LNCaP cells (Western blot); format: cell-based, human
Method: All five known ARDAs (FIG. 1) were evaluated for their ability to decrease AR protein expression in a dose dependent manner and dose response curves were generated to determine their EC50 values.
These compounds were further evaluated to determine their EC50 values (from dose response curves).
For immunoblot detection of the AR, LNCaP cells were cultured as described above in T25 flasks. Cells were treated with various concentrations of ARDAs and whole cell lysates were prepared using lysis buffer containing 0.1M Tris, 0.5% Triton X-100, and protease inhibitor. Protein content was determined using the Bradford Assay (Bio-Rad, Hercules, Calif., USA). Protein was subjected to SDS-PAGE (10% acrylamide) and transferred onto nitrocellulose membrane. The blots were blocked overnight in 5% nonfat milk in PBS-T buffer at 4° C. Monoclonal antibody was used against the AR (AR441; sc-7305; Santa Cruz Biotechnology, Santa Cruz, Calif.; 1:500 dilution) at room temperature for one hour. Membranes were then incubated with a goat anti-mouse IgG secondary antibody conjugated to horseradish peroxidase (Bio-Rad cat #170-6516; 1:2000 dilution) at room temperature for one hour. Blots were rinsed with PBS-T between each step and specific bands were visualized by enhanced chemiluminescence (ECL; Amersham Biosciences, Arlington Heights, Ill., USA). Equivalent loading of samples was determined by reprobing membranes with β-actin (Calbiochem, USA). Protein expression was normalized to β-actin.

[4] = biological target: T1, wild-type AR (Homo sapiens, UniProt P10275); test: Competitive androgen receptor binding with [3H]-R1881 in PC-3-AR cells; details: for reduction of [3H]-R1881 binding: PC-3-AR cells
T1 construct: expressed in transfected cells; host or cells: PC-3 (stably transfected, PC-3-AR)
T1 sequence (P10275 1-920): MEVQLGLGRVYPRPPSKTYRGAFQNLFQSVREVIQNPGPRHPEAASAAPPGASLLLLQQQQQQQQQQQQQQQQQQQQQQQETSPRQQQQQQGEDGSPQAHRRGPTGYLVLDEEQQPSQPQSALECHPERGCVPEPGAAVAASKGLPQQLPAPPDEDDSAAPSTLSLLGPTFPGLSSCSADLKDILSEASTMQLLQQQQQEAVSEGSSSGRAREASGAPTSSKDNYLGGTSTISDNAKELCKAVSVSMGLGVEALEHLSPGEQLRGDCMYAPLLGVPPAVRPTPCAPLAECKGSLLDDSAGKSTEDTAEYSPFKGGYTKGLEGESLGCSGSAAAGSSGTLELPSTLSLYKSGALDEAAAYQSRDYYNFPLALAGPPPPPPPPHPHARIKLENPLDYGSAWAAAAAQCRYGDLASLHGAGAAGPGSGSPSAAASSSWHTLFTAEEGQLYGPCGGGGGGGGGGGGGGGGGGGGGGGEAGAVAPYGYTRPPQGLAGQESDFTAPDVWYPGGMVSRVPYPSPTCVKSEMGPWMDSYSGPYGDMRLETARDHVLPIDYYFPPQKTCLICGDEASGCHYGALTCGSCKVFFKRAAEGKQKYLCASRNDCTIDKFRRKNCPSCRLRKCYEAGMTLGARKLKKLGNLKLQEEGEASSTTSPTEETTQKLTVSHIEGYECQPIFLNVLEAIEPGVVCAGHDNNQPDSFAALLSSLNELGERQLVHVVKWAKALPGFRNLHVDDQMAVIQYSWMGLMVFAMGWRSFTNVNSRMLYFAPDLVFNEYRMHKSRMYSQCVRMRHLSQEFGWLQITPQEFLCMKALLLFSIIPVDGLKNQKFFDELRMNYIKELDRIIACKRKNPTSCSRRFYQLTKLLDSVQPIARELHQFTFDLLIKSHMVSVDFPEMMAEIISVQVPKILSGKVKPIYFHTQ
Method: In both cell lines, compounds 9 and 11 were able to effectively compete with labeled R1881 in a dose-dependent fashion (FIG. 11). In PC-3-AR cells compound II reduced [^3H]-R1881 binding by 65% and 80% at 10 μM and 20 μM, respectively. […] Compound 9 reduced [^3H]-R1881 binding by 50% and 65% at 10 μM and 20 μM, respectively, and was equipotent in both cell lines.
(§3) These assays were performed as previously described.^10

[5] = tested on: AR-mediated transcription (LNCaP-AR); test: Luciferase transactivation assay in LNCaP cells transfected with ARR2-Luc; format: cell-based, human; details: for effect on luciferase activity, compound alone: without DHT
Method: FIG. 12. […] Cells in steroid-free medium were treated with vehicle, or increasing concentrations of either 9 or 11 with and without 5 nM DHT for 18 h. Cells were then assayed for luciferase activity using a know assay.^10
To determine if the compounds act as AR agonists or antagonists, androgen regulated transcriptional activation studies were performed in LNCaP cells transiently transfected with the probasin luciferase reported construct ARR2-Luc.
as §3

[6] = AR down-regulation, LNCaP cells (Table 5), read-out: ARDA EC50
[7] = decrease of AR protein expression, LNCaP cells, training set ARDAs (Table 1), read-out: EC50 values

| Compound | GI50 ([1]; Homo sapiens, LNCaP) | GI50 ([2]; Homo sapiens) | other results |
| --- | --- | --- | --- |
| Cc1ccc(S(=O)(=O)Nc2ccc(C)cc2[N+](=O)[O-])cc1 [BTB01434, reference compound] | 39800 nM | 43700 nM | IC50 ([1]; Homo sapiens, LNCaP cells (Table 4), read-out: IC50 (μM), effect on LNCaP cell viability): 39.8 µM; EC50 [3, 6]: 76 µM; EC50 ([3]; LNCaP cells, database hits (Table 4), read-out: EC50 (μM), ability to down-regulate AR protein expression): 76 µM |
| Cc1ccc(S(=O)(=O)Nc2ccccc2[N+](=O)[O-])cc1 [Compound 6, [(4-Methylphenyl)sulfonyl](2-nitrophenyl)amine] | 83 nM | 50100 nM | EC50 [3, 6]: > 150 µM |
| Cc1ccc(NS(=O)(=O)c2ccccc2)c([N+](=O)[O-])c1 [Compound 8, (4-Methyl-2-nitrophenyl)(phenylsulfonyl)amine] | 2.95 nM | 60200 nM | – |
| Cc1ccc(NS(=O)(=O)c2ccccc2)c(C(=O)O)c1 [Compound 10, 5-Methyl-2-[(phenylsulfonyl)amino]benzoic acid] | 18.2 nM | – | – |
| Cc1ccc(NS(=O)(=O)c2ccc(C)cc2)cc1 [Compound 11, (4-Methylphenyl)[(4-methylphenyl)sulfonyl]amine] | 1.45 nM | 30200 nM | greater inhibition of [3H]-R1881 binding to wild-type AR than to mutated receptor ([4]; 10 μM and above): approximately 20%; reduction of [3H]-R1881 binding ([4]; 10 μM): 65%; reduction of [3H]-R1881 binding ([4]; 20 μM): 80%; effect on luciferase activity, compound alone ([5]; 0.1 μM): no effect; reduction of luciferase expression in the presence of DHT ([5]; 10 μM, with 5 nM DHT): 80%; effect on luciferase activity, compound alone ([5]; 10 μM): no effect |
| Cc1ccc(NS(=O)(=O)c2ccc(F)cc2)c(C(=O)O)c1 [Compound 12, {[(4-fluorophenyl)sulfonyl]amino}-5-methylbenzoicacid] | – | – | GI50 [1]: 10700 nM; GI50 [2]: > 100000 nM |
| Cc1ccc(C#N)c(NS(=O)(=O)c2ccc(F)cc2)c1 [Compound 13, 2-{[(4-fluorophenyl)sulfonyl]amino}-4-methylbenzenecarbonitrile] | 30200 nM | ~100000 nM | – |
| Cc1ccc(-c2nnn[nH]2)c(NS(=O)(=O)c2ccc(F)cc2)c1 [Compound 14, (2-(1H-1,2,3,4-tetrazole-5-yl)-5-methylphenyl)[(4-fluorophenyl)sulfonyl]amine] | > 100000 nM | > 100000 nM | – |
| Cc1ccc(NS(=O)(=O)c2ccccc2)cc1 [Compound 15, (4-methylphenyl)(phenylsulfonyl)amine] | 21300 nM | 13800 nM | – |
| Cc1ccc(S(=O)(=O)Nc2ccccc2)cc1 [Compound 16, [(4-Methylphenyl)sulfonyl]phenylamine] | 24000 nM | 38900 nM | – |
| O=S(=O)(Nc1ccccc1)c1ccccc1 [Compound 17, Phenyl(phenylsulfonyl)amine] | 53500 nM | > 100000 nM | – |
| Cc1ccc(N(C)S(=O)(=O)c2ccc(C)cc2)cc1 [Compound 18, Methyl(4-methylphenyl)[(4-methylphenyl)sulfonyl]amine] | 89200 nM | 44700 nM | – |
| Cc1ccc(NC(=O)c2ccc(C)cc2)cc1 [Compound 19, (4-Methylphenyl)-N-(4-methylphenyl)carboxamide] | 55000 nM | 26900 nM | – |
| Cc1ccc(CNc2ccc(C)cc2)cc1 [Compound 21, (4-Methylphenyl) [(4-methylphenyl)methyl]amine] | 19000 nM | 29500 nM | – |
| Cc1ccc(NCc2ccccc2)cc1 [Compound 23, (4-Methylphenyl)benzylamine] | > 100000 nM | 52400 nM | – |
| COc1cc(/C=C/C(=O)CC(=O)/C=C/c2ccc(O)c(OC)c2)ccc1O [Curcumin (4), curcumin] | – | – | EC50 [3, 7]: 35 µM |
| C[C@]12CCC(=O)C[C@@H]1CC[C@@H]1[C@@H]2CC[C@]2(C)[C@@H](O)CC[C@@H]12 [DHT, dihydrotestosterone, reference compound] | – | – | stimulation of luciferase activity ([5]; 5 nM): approximately 200 fold |
| O=C(O)c1ccccc1Nc1cccc(C(F)(F)F)c1 [Flufenamic acid (3), flufenamic acid] | – | – | EC50 [3, 7]: ~200 µM |
